Results on two compounds are retold here after patent US20150374709A1, “TETRA-SUBSTITUTED NDGA DERIVATIVES VIA ETHER BONDS AND CARBAMATE BONDS AND THEIR SYNTHESIS AND PHARMACEUTICAL USE” (ERIMOS PHARMACEUTICALS LLC, priority 2006, published 2015).

Counter-ions that a name gives are not always drawn. Like-named read-outs stand apart in the source and are kept apart here. Some results are limits rather than exact numbers.

One experiment has as its system COS-7 cells. As to the kind of experiment: MTT cytotoxicity assay in COS-7 cells (run with SEAP). To be noted: COS-7 test cells of the SEAP assay. The experiment is classed as cell-based, green monkey. (In general: Tetrazolium dyes change colour on reduction, which living cells bring about.)
A further experiment has as its system MCP-1. As to the kind of experiment: MCP-1 protein production in TNF-α-treated primary human keratinocytes. It is filed as cell-based. The protocol:
Anti-inflammatory activity was determined based on the effect of tested compounds on primary human keratinocytes (PHKs). PHKs play an important role in inflammatory processes, synthesizing a number of cytokines, adhesion molecules and growth factors. Studies were conducted to determine whether tested compounds could inhibit keratinocytes to prevent or reduce production of interferon gamma (IFN-γ), interleukin-8 (IL-8), tumor necrosis factor alpha (TNF-α), granulocyte/macrophage colony-stimulating factor (GM-CSF), intercellular adhesion molecule-1 (ICAM-1, also known as CD54) and monocyte chemotactic protein-1 (MCP-1). PHKs are first treated with TNF-α to induce a pro-inflammatory state and release of pro-inflammatory cytokines. Specific cytokines are then assayed following manufacturer's instructions using R&D Systems. Inc.'s protein assays (Quantikine ELISA kits; Catalog Nos. DCP00 for MCP-1 kit, DCM00 for GM-CSF kit, and DIF50 for IFN-γ).
Anti-inflammatory activity of several of the compounds of the previously described working examples was determined based on the effect of tested compounds on primary human keratinocytes (PHKs) as described above and following the manufacturer's instructions for the various kits used in the studies. While these studies more typically are used mostly for anti-inflammatory investigations, they can also apply to vascular diseases, since the results in keratinocytes may be extrapolated to vascular endothelium.
Only MCP-1 data with PHKs is dose-dependent, so an IC50 for MCP-1 can be calculated, but not for the other cytokines.

The test system of a further experiment is A549 (lung carcinoma). Description: MTS cell viability assay, A549. It is filed as cell-based. To be noted: Homo sapiens. The text has this:
(§1) Studies performed regarding cytotoxicity included the well-known MTS, Trypan Blue and MTT protocols. The MTS studies were done using the CellTiter 96®AQueous One Solution Cell Proliferation Assay (Promega Corporation, Madison, Wis. USA). Metabolically active, namely viable, cells turn MTS, a tetrazolium compound (3-(4,5-dimethylthiazol-2-yl)-5-(3-carboxymethoxyphenyl)-2-(4-sulfophenyl)-2H-tetrazolium, inner salt) into colored formazan, which is soluble in tissue culture medium. The measurement of the absorbance of the formazan is read at 490 nm. The ready to use reagent is added directly to the cells in media in 96-well plates, incubated 1-4 hours and the results are recorded by the plate reader. The IC50 is estimated by graphing the gathered data. The IC50 is the concentration of the tested material that inhibits 50% of growth or viability of the tested material compared to a control.
(§2) Three cell lines obtained from ATCC and maintained as directed by ATCC were tested: HeLa (cervical adenocarcinoma), A549 (lung carcinoma), and COS-7 (SV40 transformed monkey kidney). Studies of these cell lines are considered to be indicative of the effect of tested substances on mammalian, including human, diseases.
(§3) All compounds were dissolved in DMSO and DMSO is used as the placebo. The samples were first dissolved into 10 mM dilutions in DMSO and then diluted further to 5, 1, 0.5, 0.1, 0.05, and 0.01 mM solutions. These solutions were added to the media at a 1% concentration (1 μl to 100 μl media) to treat the cells with 100, 50, 10, 5, 1, 0.5, and 0.1 μM of the compound. […] Solutions were checked before use for precipitation, especially the 10 mM solutions. If there was precipitation, they were warmed 65° C. and added to warmed media.
(§4) Wells on a 96-well plate were seeded with 1.5-8×10^4 cells in 100 μl media and incubated overnight. The outside wells of the plate were filled with 200 μl sterile, deionized (DI) water to curb media evaporation. After 24 hours, test chemicals were prepared in media at a concentration of 1% media volume. The test sample media were added, mixing with pipette before adding 100 μl per well. Media was added to the “Media Only” wells. The well plate and its contents were incubated for 24-72 hours, depending on the study conducted. On the thy of the MTS assay, the MTS reagent was removed from the refrigerator and brought to room temperature. Using the multichannel pipette, 20 μl of the MTS reagent was added to each well and incubated for one to four hours. The plate was read at 490 nm with a reference wavelength of 690 nm after one hour in the incubator thereafter until the blank wells were at about 0.2 OD. The results were then scanned into a Microsoft® Excel® template designed to perform all necessary calculations whim data are entered. The data were checked for statistical errors; data points that are within 10% of the mean of the data points for that group were included. The average of the blanks (“Media Only”) were subtracted and the data were inserted into a chart that represents growth response, treated/untreated.

Experiment [1] deals with TAT-mediated transactivation of HIV transcription (HIV-1 LTR promoter). As to the kind of experiment: SEAP assay of TAT-mediated transactivation (antiviral activity). The experiment is classed as cell-based, human immunodeficiency virus (HIV). The protocol:
Antiviral activity is determined using a SEAP (SEcreted Alkaline Phosphatase) assay, in which cells are co-transfected with SEAP and TAT plasmids. TAT is a transactivator, human immunodeficiency virus (HIV) gene expression and is one of the two or more necessary viral regulatory factors (TAT and REV) for HIV gene expression. TAT acts iv binding to the TAR RNA element and activating transcription from the long terminal repeat (LTR) promoter. […] Previous studies have shown that TAT mediates reduction of antibody-dependent T cell proliferation, contributing substantially to the failure of the immune response. TAT also directly stimulates Kaposi's cell growth.
Since TAT has no apparent cellular homologs, this strong positive regulator has become an attractive target for the development of anti-AIDS drugs. In contrast to currently available HIV reverse transcriptase inhibitors (AZT, DDI) or potential protease inhibitors that prevent new rounds of infection, an inhibitor which suppresses viral gene TAT regulated expression of integrated proviral DNA will arrest the virus at an early stage (Hsu et al., Science 254:1799-1802, 1991). Efforts aimed at the elucidation of factors which control gene expression at transcriptional and post-transcriptional levels in host eukaryotes have recently made possible quantitative assessment of TAT function (Sim, Ann. N.Y. Acad. Sci. 616: 64-70, 1990). To screen for inhibitors for TAT regulated transactivation (TAT-TRS), the SEAP reporter gene is put under the control of HIV-1 LTR promoter in the plasmid pBC12/HIV/SEAP. The TAT-coded activity is supplied by a second plasmid construct pBC12/CMV/t2. Transient co-transfection of COS-7 cells with these two plasmids leads to secretion of alkaline phosphatase into the culture medium which is analyzed by a simple colorimetric assay (Berger et al., Gene 66: 1-10, 1988). […]
In the SEAP assay, an inhibitor should cause reduction of SEAP reporter gene expression via transactivation of the HIV-1 LTR promoter by TAT protein (TAT-TRS). […] SEAP is detected colorimetrically by the para-nitrophenyl phosphate substrate at 405 nm. […] The cells are analyzed by the MTT assay to compare cytotoxicity to SEAP inhibition. […]
COS-7 (green monkey kidney) cells were co-transfected using Fugene 6 reagent (Roche Applied Science, Cat. No. 11815091001, Indianapolis, Ind., USA) with two plasmids: pHIVSEAP (SEAP expression vector under the control of the HIV LTR promoter) and pCTAT (HIV TAT transcription factor expression vector under the control of a CMV (cytomegalovirus) promoter). After test compound treatment for 48 hours, samples were analyzed for […] at 405 nm after addition of the p-nitrophenyl phosphate substrate. The percentage of SEAP activity inhibition was calculated in relation to the placebo control.

Experiment [2] relates to HeLa (cervical adenocarcinoma). As to the kind of experiment: MTS cell viability assay, HeLa. The experiment is classed as cell-based. To be noted: Homo sapiens, HeLa, read-out: HeLa IC50.
Source text: as §1, §2, §3, §4

Method for COS-7 cells: The MTT assay is a colorimetric method for determining the number of viable cells. Metabolically active cells turn the MIT reagent, (3-(4,5-dimethylthiazol-2-yl)-2,5-diphenyltetrazolium bromide, into purple-colored formazan crystals that are solubilized in dimethyl sulfoxide (DMSO). The MTT reagent is added to MTT (colorless) media. The media is added to the cells and they are incubated for 4 hours. DMSO is added to the cells and mixed. The colored solutions are then read at 540 nm and corrected at 630 nm. The IC50 is estimated by graphing the gathered data.
The cells are analyzed by the MTT assay to compare cytotoxicity to SEAP inhibition. The goal is for the drug to inhibit SEAP without being too toxic.
The MTT assay measures cellular-proliferation and is used to verify that the levels of SEAP activity are not solely due to cytotoxicity. These assays was used in screening for potential drug compound leads as antiviral agents, and particularly, anti-HIV candidates.

Turning to `Cc1nc(COc2ccc(C[C@@H](C)[C@@H](C)Cc3ccc(OCc4csc(C)n4)c(OCc4csc(C)n4)c3)cc2OCc2csc(C)n2)cs1` [Compound F, 1,4-bis{3,4-bis(2-methyl-thiazol-4-yl-methoxy)phenyl}-2,3-dimethyl-(2R,3S)-butane tetrakis-hydrochloride salt], the “COS-7 IC50” value with COS-7 cells is recorded as “Variable”. The IC50 – broadly, the concentration that inhibits the measured activity by half – in the experiment with MCP-1 (read-out: MCP-1 IC50; TNF-α-treated PHK) was more than 100 µM; with A549 (lung carcinoma) (A549, read-out: A549 IC50), more than 100 µM; in experiment [2] it was more than 100 µM. The “SEAP EC50” value in experiment [1] (COS-7 cells co-transfected with pHIVSEAP and pCTAT, 48 hours treatment) is “Variable”.

For the compound `C[C@H](Cc1ccc(OCCOCCO)c(OCCOCCO)c1)[C@@H](C)Cc1ccc(OCCOCCO)c(OCCOCCO)c1` [Compound J, 1,4-bis{3,4-bis[2-(2-hydroxyethoxy)ethoxyl]phenyl}-2,3-dimethyl-(2R,3S)-butane], the IC50 in the experiment with COS-7 cells (Chlorocebus sabaeus) is 80 to 90 µM; in the experiment with MCP-1 (TNF-α-treated PHK; read-out: MCP-1 IC50), 70 µM; with A549 (lung carcinoma) (A549, MTS assay, read-out: A549 IC50) it was 80 to 90 µM; in experiment [2] (MTS assay), more than 100 µM. Moreover, the EC50 (usually the concentration giving half of the maximal effect) in experiment [1] (Human immunodeficiency virus 1, COS-7, 48 h, read-out: SEAP EC50) was in the range of 80 to 90 µM.
